Laboratory results as given in patent US20190185518A9, “WARHEAD-CONTAINING PEPTIDOMIMETIC MACROCYCLES AS MODULATORS OF BFL-1” (AILERON Therapeutics, Inc., priority 2017, published 2019).
Where two headings read alike, the source gives them in different places. Positions of bridges follow the written chain, without caps; N, C: chain ends. Non-standard residues stand in square brackets, D forms with d. Residues, ends and D or L forms follow the SMILES beside them. R8 = C=CCCCCCC[C@@](C)(N)C(=O)O; Cit = NC(=O)NCCC[C@H](N)C(=O)O; S5 = C=CCCC[C@](C)(N)C(=O)O; Aib = CC(C)(N)C(=O)O

What was measured:
Mcl-1, Bcl-xL, Bcl-2 = assay: BCL-2 family selectivity profile; assay type: binding
Excerpt: The binding spectrum of stapled BIM BH3 peptides were tuned for BCL-2 family selectivity. […] ABT-199 is venetoclax, and † represents values reported in the literature.

A375-P melanoma cells [1] = assay: Cell viability (CellTiter-Glo), A375-P; assay type: cell-based; settings: 40 μM
Method: (§1) Cancer cells were cultured using a standard culture medium containing 10% fetal bovine serum (FBS) and penicillin-streptomycin (A375P: DMEM; SK-MEL-2, SK-MEL-28: EMEM). Cells were plated in 96-well plates (5×10^3 cells per well) and, after overnight incubation, treated with the indicated concentrations of Stapled Peptides in the corresponding medium supplemented with 5% FBS for the indicated durations. Cell viability and caspase-3/7 activation was measured using CellTiter-Glo and Caspase-Glo 3/7 chemiluminescence reagents (Promega), respectively. Luminescence was detected by a microplate reader (Spectramax M5, Molecular Devices).

SK-MEL-2 melanoma cells [2] = assay: Cell viability (CellTiter-Glo), SK-MEL-2; assay type: cell-based; settings: 40 μM
Method: as §1

SK-MEL-28 melanoma cells [3] = assay: Cell viability (CellTiter-Glo), SK-MEL-28; assay type: cell-based; settings: 40 μM
Method: as §1

A375-P melanoma cells [4] = assay: Caspase-3/7 activation (Caspase-Glo 3/7), A375-P; assay type: cell-based; settings: A375-P cells, 40 μM
Method: as §1

SK-MEL-2 melanoma cells [5] = assay: Caspase-3/7 activation (Caspase-Glo 3/7), SK-MEL-2; assay type: cell-based; settings: SK-MEL-2 cells, 40 μM
Method: as §1

SK-MEL-28 melanoma cells [6] = assay: Caspase-3/7 activation (Caspase-Glo 3/7), SK-MEL-28; assay type: cell-based; settings: SK-MEL-28 cells, 40 μM
Method: as §1

[7] = test system: ABT-199 resistant Burkitt lymphoma Raji cells; assay: WST-1 anti-proliferative activity in Raji cells; assay type: cell-based, Human; settings: TABLE 9; Raji cell proliferation
Excerpt: WST-1 is a cell proliferation reagent that is used in colorimetric assays designed to measure the relative proliferation rates of cells in culture. The assay is based on the conversion of the tetrazolium salt WST-1 into a colored dye by mitochondrial dehydrogenase enzymes. The soluble salt is released into the media. Within a given time period, the reaction produces a color change that is directly proportional to the amount of mitochondrial dehydrogenase in a culture. The WST-1 assay measures the net metabolic activity of cells.

Mcl-1 = Mcl-1 (Homo sapiens, UniProt Q07820); assay: Ki determination for Mcl-1 (BCL-2 family binding spectrum)
Chain of Mcl-1 (Q07820 whole entry, species assumed): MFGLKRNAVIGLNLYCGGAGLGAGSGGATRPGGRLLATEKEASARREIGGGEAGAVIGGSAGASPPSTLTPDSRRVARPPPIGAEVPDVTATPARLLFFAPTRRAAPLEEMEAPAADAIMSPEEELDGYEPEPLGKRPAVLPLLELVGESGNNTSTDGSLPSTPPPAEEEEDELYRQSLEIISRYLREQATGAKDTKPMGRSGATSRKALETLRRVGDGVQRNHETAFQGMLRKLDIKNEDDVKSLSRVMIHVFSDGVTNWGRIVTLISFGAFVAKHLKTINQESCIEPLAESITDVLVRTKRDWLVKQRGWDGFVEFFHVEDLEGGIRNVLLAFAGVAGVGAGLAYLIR
Outline: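 Binding to Mcl-1 was measured as displacement of a fluorescein-labelled macrocyclic peptidomimetic, read by fluorescence polarization. Constants were fitted by nonlinear regression.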

[8] = biological target: T1, MCL-1/BAK protein-protein interaction (Homo sapiens, UniProt Q07820); assay: MCL-1 displacement study (BAK FRET signal); assay type: cell-based; settings: 10 μM and 20 μM
T1 construct: host or cells: Raji
T1 sequence (Q07820 whole entry): as the sequence (Q07820 whole entry, species assumed) above
Method: BIM peptidomimetic macrocycles were tested for displacement of MCL-1 from a BAK fluorescence resonance energy transfer (FRET) peptide.
FIG. 19 compares normalized FRET signals of samples to determine the samples' effects in disrupting MCL-1/BAK protein-protein interactions.

Bcl-xL = Bcl-xL (Homo sapiens, UniProt Q07817); assay: Ki determination for Bcl-xL (BCL-2 family binding spectrum); settings: TABLE 6; read-out: Bcl-xL Ki
Chain of Bcl-xL (Q07817 whole entry, species assumed): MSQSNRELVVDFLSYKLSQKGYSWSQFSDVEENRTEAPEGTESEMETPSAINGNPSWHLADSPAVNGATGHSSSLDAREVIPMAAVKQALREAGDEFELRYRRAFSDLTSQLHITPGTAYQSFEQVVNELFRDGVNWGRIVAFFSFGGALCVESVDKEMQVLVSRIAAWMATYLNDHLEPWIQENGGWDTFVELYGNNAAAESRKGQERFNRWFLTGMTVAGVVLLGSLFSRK
Outline: (§2)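 Competitive fluorescence polarization: compounds (1 nM–1 mM) with 25 nM fluoresceinated peptidomimetic macrocycle and 50 nM protein in 140 mM NaCl, 50 mM Tris-HCl pH 7.4, 30 min at room temperature. Constants from nonlinear regression.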

Bcl-2 = Bcl-2 (Homo sapiens, UniProt P10415); assay: Ki determination for Bcl-2 (BCL-2 family binding spectrum); settings: TABLE 6; read-out: Bcl-2 Ki
Chain of Bcl-2 (P10415 whole entry, species assumed): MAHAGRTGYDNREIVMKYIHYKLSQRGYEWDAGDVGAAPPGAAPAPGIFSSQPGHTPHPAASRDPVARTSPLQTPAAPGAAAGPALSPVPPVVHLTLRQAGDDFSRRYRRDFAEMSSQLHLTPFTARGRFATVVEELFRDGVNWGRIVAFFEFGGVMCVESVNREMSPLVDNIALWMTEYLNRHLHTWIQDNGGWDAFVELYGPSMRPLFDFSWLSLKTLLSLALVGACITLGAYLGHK
Outline: as §2

SMILES	Ki (Mcl-1; TABLE 6, read-out: Mcl-1 Ki)	Ki (Bcl-xL)	Ki (Bcl-2)	Profile (Mcl-1, Bcl-xL, Bcl-2; TABLE 6)	further results
CC[C@H](C)[C@H](NC(C)=O)C(=O)N[C@@H](Cc1c[nH]c2ccccc12)C(=O)N[C@H](C(=O)N[C@@H](C)C(=O)N[C@@H](CCC(N)=O)C(=O)N[C@@H](CCC(=O)O)C(=O)N[C@@H](CC(C)C)C(=O)N[C@@H](CCCNC(=N)N)C(=O)N[C@@]1(C)CCCC=CCCC[C@@](C)(C(=O)N[C@@H](Cc2ccccc2)C(=O)N[C@@H](CC(N)=O)C(=O)N[C@@H](C)C(=O)N[C@@H](Cc2ccc(O)cc2)C(=O)N[C@@H](Cc2ccc(O)cc2)C(=O)N[C@@H](C)C(=O)N[C@@H](CCCNC(=N)N)C(=O)N[C@@H](CCCNC(=N)N)C(N)=O)NC(=O)[C@H](CC(=O)O)NC(=O)CNC(=O)[C@H]([C@@H](C)CC)NC1=O)[C@@H](C)CC [BIM SAHBA1]	–	–	–	–	Profile (Mcl-1, Bcl-xL, Bcl-2; TABLE 8): Pan-selective; proliferation (A375-P melanoma cells [1]; A375-P cells): neither BIM SAHBA1 nor Aileron peptide 1 affected proliferation; % cell viability (A375-P melanoma cells [1]; A375-P, 5% serum): had no effect on % viability; % cell viability (SK-MEL-2 melanoma cells [2]; SK-MEL-2, 5% serum): had no effect on % viability; proliferation (SK-MEL-2 melanoma cells [2]; SK-MEL-2 cells): neither BIM SAHBA1 nor Aileron peptide 1 affected proliferation; % cell viability (SK-MEL-28 melanoma cells [3]; SK-MEL-28, 5% serum): had no effect on % viability; proliferation (SK-MEL-28 melanoma cells [3]; SK-MEL-28 cells): neither BIM SAHBA1 nor Aileron peptide 1 affected proliferation; apoptosis induction (A375-P melanoma cells [4]): neither BIM SAHBA1 nor Aileron peptide 1 affected proliferation and apoptosis induction; apoptosis induction (SK-MEL-2 melanoma cells [5]): neither BIM SAHBA1 nor Aileron peptide 1 affected proliferation and apoptosis induction; apoptosis induction (SK-MEL-28 melanoma cells [6]): neither BIM SAHBA1 nor Aileron peptide 1 affected proliferation and apoptosis induction; IC50 [7]: 23700 nM
CC[C@H](C)[C@H](NC(=O)[C@H](Cc1c[nH]c2ccccc12)NC(=O)[C@H](CCCNC(=N)N)NC(C)=O)C(=O)N[C@@H](C)C(=O)N[C@@H](CCC(N)=O)C(=O)N[C@@H](C)C(=O)N[C@@H](CC(C)C)C(=O)N[C@@H](CCCNC(=N)N)C(=O)N[C@@]1(C)CCCC=CCCC[C@@](C)(C(=O)N[C@@H](CC(C)C)C(=O)N[C@@H](CC(N)=O)C(=O)NC(C)(C)C(=O)N[C@@H](Cc2ccccc2)C(=O)N[C@@H](Cc2ccc(O)cc2)C(=O)N[C@@H](C)C(=O)N[C@@H](Cc2c[nH]cn2)C(=O)N[C@@H](Cc2c[nH]cn2)C(N)=O)NC(=O)[C@H](CC(=O)O)NC(=O)CNC(=O)[C@H]([C@@H](C)CC)NC1=O [Peptide #14] (Ac-RWIAQALR[S5]IGD[S5]LN[Aib]FYAHH-NH2; staple 9-13)	–	–	–	–	Ki (Mcl-1; TABLE 7, read-out: MCL-1 Ki): 11 nM; Ki of MCL-1 compared with Ki of BCL-xL or BCL-2 (Mcl-1, Bcl-xL, Bcl-2; TABLE 7 assay): drastically lower; Profile (Mcl-1, Bcl-xL, Bcl-2; TABLE 8): Mcl-1 selective; disrupting the MCL-1/BAK protein-protein interaction (normalized FRET signal) [8]: highly effective
CC[C@H](C)[C@H](NC(C)=O)C(=O)N[C@@H](Cc1c[nH]c2ccccc12)C(=O)N[C@H](C(=O)N[C@@H](C)C(=O)N[C@@H](CCC(N)=O)C(=O)N[C@@H](C)C(=O)N[C@@H](CC(C)C)C(=O)N[C@@H](CCCNC(N)=O)C(=O)N[C@]1(C)CCCCCCC=CCCC[C@@](C)(C(=O)N[C@@H](Cc2ccc(O)cc2)C(=O)N[C@@H](Cc2ccc(O)cc2)C(=O)N[C@@H](C)C(N)=O)NC(=O)[C@H](CC(N)=O)NC(=O)[C@H](Cc2ccccc2)NC(=O)[C@H](C)NC(=O)[C@H](CC(=O)O)NC(=O)CNC(=O)[C@H]([C@@H](C)CC)NC1=O)[C@@H](C)CC [compound 5] (Ac-IWIAQAL[Cit][R8]IGDAFN[S5]YYA-NH2; staple 9-16)	7.5 nM	110 nM	212 nM	Mcl-1 selective	–
CC[C@H](C)[C@H](NC(C)=O)C(=O)N[C@@H](Cc1c[nH]c2ccccc12)C(=O)N[C@H](C(=O)N[C@@H](C)C(=O)N[C@@H](CCC(N)=O)C(=O)N[C@@H](C)C(=O)N[C@@H](CC(C)C)C(=O)N[C@@H](CCCNC(=N)N)C(=O)N[C@]1(C)CCCCCCC=CCCC[C@@](C)(C(=O)N[C@@H](Cc2ccc(O)cc2)C(=O)N[C@@H](Cc2ccc(O)cc2)C(=O)N[C@@H](C)C(N)=O)NC(=O)[C@H](CC(N)=O)NC(=O)[C@H](C)NC(=O)[C@H](C)NC(=O)[C@H](CC(=O)O)NC(=O)CNC(=O)[C@H]([C@@H](C)CC)NC1=O)[C@@H](C)CC [compound 7] (Ac-IWIAQALR[R8]IGDAAN[S5]YYA-NH2; staple 9-16)	7.5 nM	402 nM	140 nM	Mcl-1 selective	–
CC[C@H](C)[C@H](NC(C)=O)C(=O)N[C@@H](Cc1c[nH]c2ccccc12)C(=O)N[C@H](C(=O)N[C@@H](C)C(=O)N[C@@H](CCC(N)=O)C(=O)N[C@@H](C)C(=O)N[C@@H](CC(C)C)C(=O)N[C@@H](CCCNC(=N)N)C(=O)N[C@]1(C)CCCCCCC=CCCC[C@@](C)(C(=O)N[C@@H](Cc2ccc(O)cc2)C(=O)N[C@@H](Cc2ccc(O)cc2)C(=O)N[C@@H](C)C(N)=O)NC(=O)[C@H](CC(N)=O)NC(=O)[C@H](Cc2ccccc2)NC(=O)[C@H](CCC(N)=O)NC(=O)[C@H](CC(=O)O)NC(=O)CNC(=O)[C@H](C)NC1=O)[C@@H](C)CC [compound 10] (Ac-IWIAQALR[R8]AGDQFN[S5]YYA-NH2; staple 9-16)	122 nM	1.9 nM	4.8 nM	Bcl-xL/Bcl-2 selective	–

The next lines start with results.

Ki (Mcl-1; TABLE 6, read-out: Mcl-1 Ki)	Ki (Bcl-xL)	Ki (Bcl-2)	SMILES	Profile (Mcl-1, Bcl-xL, Bcl-2; TABLE 6)	further results
1 nM	1 nM	6 nM	CC[C@H](C)[C@H](NC(C)=O)C(=O)N[C@@H](Cc1c[nH]c2ccccc12)C(=O)N[C@H](C(=O)N[C@@H](C)C(=O)N[C@@H](C)C(=O)N[C@@H](C)C(=O)N[C@@H](CC(C)C)C(=O)N[C@@H](CCCNC(=N)N)C(=O)N[C@]1(C)CCCCCCC=CCCC[C@@](C)(C(=O)N[C@@H](Cc2ccc(O)cc2)C(=O)N[C@@H](Cc2ccc(O)cc2)C(=O)N[C@@H](C)C(N)=O)NC(=O)[C@H](CC(N)=O)NC(=O)[C@H](Cc2ccccc2)NC(=O)[C@H](CCC(=O)O)NC(=O)[C@H](CC(=O)O)NC(=O)CNC(=O)[C@H]([C@@H](C)CC)NC1=O)[C@@H](C)CC [compound 3] (Ac-IWIAAALR[R8]IGDEFN[S5]YYA-NH2; staple 9-16)	Pan-selective	–
6 nM	4 nM	22 nM	CC[C@H](C)[C@H](NC(C)=O)C(=O)N[C@@H](Cc1c[nH]c2ccccc12)C(=O)N[C@H](C(=O)N[C@@H](C)C(=O)N[C@@H](C)C(=O)N[C@@H](C)C(=O)N[C@@H](CC(C)C)C(=O)N[C@@H](CCCNC(=N)N)C(=O)N[C@]1(C)CCCCCCC=CCCC[C@@](C)(C(=O)N[C@@H](Cc2ccc(O)cc2)C(=O)N[C@@H](Cc2ccc(O)cc2)C(=O)N[C@@H](C)C(N)=O)NC(=O)[C@H](CC(N)=O)NC(=O)[C@H](Cc2ccccc2)NC(=O)[C@H](CCC(N)=O)NC(=O)[C@H](CC(=O)O)NC(=O)CNC(=O)[C@H]([C@@H](C)CC)NC1=O)[C@@H](C)CC [compound 4] (Ac-IWIAAALR[R8]IGDQFN[S5]YYA-NH2; staple 9-16)	Pan-selective	–
1.7 nM	28.8 nM	88.2 nM	CC[C@H](C)[C@H](NC(C)=O)C(=O)N[C@@H](Cc1c[nH]c2ccccc12)C(=O)N[C@H](C(=O)N[C@@H](C)C(=O)N[C@@H](CCC(N)=O)C(=O)N[C@@H](C)C(=O)N[C@@H](CC(C)C)C(=O)N[C@@H](CCCNC(N)=O)C(=O)N[C@]1(C)CCCCCCC=CCCC[C@@](C)(C(=O)N[C@@H](Cc2ccc(O)cc2)C(=O)N[C@@H](Cc2ccc(O)cc2)C(=O)N[C@@H](C)C(N)=O)NC(=O)[C@H](CC(N)=O)NC(=O)[C@H](Cc2ccccc2)NC(=O)[C@H](CCC(N)=O)NC(=O)[C@H](CC(=O)O)NC(=O)CNC(=O)[C@H]([C@@H](C)CC)NC1=O)[C@@H](C)CC [compound 6] (Ac-IWIAQAL[Cit][R8]IGDQFN[S5]YYA-NH2; staple 9-16)	Mcl-1 selective	–
